Data on seven compounds can be found in patent publication EP0640088B1, “NOVEL TRICYCLIC THIAZOLO AND THIAZINO DERIVATIVES AND ANTI-VIRAL MEDICAMENTS CONTAINING THEM” (BOEHRINGER MANNHEIM GMBH, priority 1992, dated 1993).

Read-outs that look alike come from different tables or passages of the source.

The assay has as its target T1, RT aus HIV-1 (Human immunodeficiency virus type 1 group M subtype B, UniProt P04585).
T1 construct: die gereinigte RT aus HIV-1; made in house; host or cells: E. coli
Nature of the assay: Inhibition of reverse transcriptase (RT), screening test system measuring [3H]-thymidine-5'-triphosphate incorporation. It is filed as biochemical. The text has this:
Hemmung der Reversen Transkriptase (RT)
Das Screeningtestsystem beinhaltet die gereinigte RT aus HIV-1, die durch gentechnologische Methoden in E. coli exprimiert wurde, sowie die Komponenten des Initiationskomplexes, wie die in-vitro-Transkripte des HIV-LTR's mit der benachbarten Primer Binding Site als Template und einem zur Primer Binding Site komplementären 18mer Oligonukleotid als Primer. Gemessen wurde der [^3H]-Thymidin-5'-triphosphat-Einbau durch Auszählen im β-Counter.

As usually defined, the IC50 is the concentration at which inhibition is half-maximal.

`S=C1Nc2ccccc2C2(c3ccccc3)SCCN12` (stereo not shown) [Beispiel 7, 10b-Phenyl-2,3,6,10b-tetrahydro-5H-thiazolo[3,2-c]quinazolin-5-thion] registered an IC50 of 30 nM.

In the case of `O=C1Nc2ccc(Cl)cc2C2(c3ccccc3)SCCN12` (stereo not shown) [Beispiel 4, 9-Chlor-10b-phenyl-2,3,6,10b-tetrahydro-5H-thiazolo[3,2-c]quinazolin-5-on], the half-inhibitory concentration (IC50) (purified recombinant RT from HIV-1 expressed in E. coli, HIV-LTR in-vitro transcript as template, 18mer oligonucleotide primer, [3H]-TTP incorporation, β-counter, read-out: Hemmung der HIV-RT IC50) came to 30 nM.

For the compound `Cc1cccc(C23SCCN2C(=O)Nc2ccccc23)c1` (stereo not shown) [Beispiel 5 b, 10b-(3-Methylphenyl)-2,3,6,10b-tetrahydro-5H-thiazolo[3,2-c]quinazolin-5-on], it took 30 nM to reach half-maximal inhibition (IC50).

`O=C1Nc2ccccc2C2(c3ccccc3)SCCCN12` (stereo not shown) [Beispiel 2, 11b-Phenyl-3,4,7,11b-tetrahydro-2H,6H-[1,3]thiazino[3,2-c]quinazolin-6-on] yielded an IC50 of 510 nM.

`O=C1Nc2ccccc2C2(c3ccccc3)SCCN12` (stereo not shown) [Beispiel 1 b, 10b-Phenyl-2,3,6,10-tetrahydro-5H-thiazolo[3,2-c]quinazolin-5-on] returned an IC50 of 470 nM.

`Cc1cccc(C23SCCN2C(=O)Nc2ccccc23)n1` (stereo not shown) [Beispiel 5 f, 10b-(6-Methyl-2-pyridyl)-2,3,6,10b-tetrahydro-5H-thiazolo[3,2-c]quinazolin-5-on] displayed a half-inhibitory concentration (IC50) of 200 nM.

As to `CN1C(=O)N2CCSC2(c2ccccc2)c2ccccc21` (stereo not shown) [Beispiel 6, 6-Methyl-10b-phenyl-2,3,6,10b-tetrahydro-5H-thiazolo [3,2-c]quinazolin-5-on], the IC50 was determined as 6200 nM.
